In PubChem BioAssay (NCI):
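GI50 is the concentration that inhibits growth by half. TGI marks complete inhibition of growth.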

Legend:
Experiment in all cases: growth of human tumour cells (NCI), 384-well format
[1] = test system: DU-145 prostate
[2] = test system: T-47D breast
[3] = test system: A549 NSCLC
[4] = test system: HOP-62 NSCLC
[5] = test system: UO-31 renal
[6] = test system: PC-3 prostate
[7] = test system: RPMI-8226 leukemia
[8] = test system: MCF7 breast
[9] = test system: KM12 colon
[10] = test system: HT29 colon
[11] = test system: SW-620 colon
[12] = test system: UACC-257 melanoma
[13] = test system: NCI-H522 lung
[14] = test system: OVCAR-3 ovarian
[15] = test system: NCI/ADR-RES ovarian
[16] = test system: HL-60(TB) leukemia
[17] = test system: NCI-H226 lung
[18] = test system: RXF 393 renal
[19] = test system: SK-MEL-28 melanoma
[20] = test system: OVCAR-8 ovarian
[21] = test system: MDA-MB-468 breast
[22] = test system: IGROV1 ovarian
[23] = test system: 786-0 renal
[24] = test system: SF-268 CNS
[25] = test system: MDA-MB-231 breast
[26] = test system: SNB-19 CNS
[27] = test system: MOLT-4 leukemia
[28] = test system: SN12C renal
[29] = test system: NCI-H23 lung
[30] = test system: EKVX NSCLC
[31] = test system: CAKI-1 renal
[32] = test system: HOP-92 NSCLC
[33] = test system: HCT-116 colon
[34] = test system: MALME-3M melanoma
[35] = test system: BT-549 breast
[36] = test system: TK-10 renal
[37] = test system: LOX IMVI melanoma
[38] = test system: HS 578T breast
[39] = test system: MDA-MB-435 melanoma
[40] = test system: U251 glioblastoma
[41] = test system: SF-539 CNS
[42] = test system: SK-MEL-2 melanoma
[43] = test system: CCRF-CEM leukemia
[44] = test system: A498 renal
[45] = test system: OVCAR-5 ovarian
[46] = test system: SNB-75 CNS
[47] = test system: ACHN renal
[48] = test system: SK-OV-3 ovarian
[49] = test system: NCI-H322M lung
[50] = test system: HCT-15 colon
[51] = test system: K-562 leukemia
[52] = test system: UACC-62 melanoma
[53] = test system: OVCAR-4 ovarian
[54] = test system: SF-295 CNS
[55] = test system: M14 melanoma

N[C@@H]1CCCC[C@H]1N.O=C([O-])C(=O)[O-].[Pt+4] showed a GI50 [1] of 7.47 µM, a TGI [1] of 36 µM and a GI50 [2] of 12.7 µM. The TGI [2] was over 100 µM, the GI50 [3] was 2.61 µM and the TGI [3] was over 100 µM. The GI50 [4] was 7.92 µM, the TGI [4] was over 100 µM and the GI50 [5] was 10.4 µM. For the same compound, the TGI [5] was 25.5 µM, the GI50 [6] was 8.53 µM and the TGI [6] was over 100 µM. It also gave a GI50 [7] of 0.403 µM, a TGI [7] of 1.85 µM and a GI50 [8] of 5.43 µM. The TGI [8] was over 100 µM, the GI50 [9] was 20.8 µM and the TGI [9] was over 100 µM. It also gave a GI50 [10] of 3.78 µM, a TGI [10] of over 100 µM and a GI50 [11] of 0.951 µM. It also gave a TGI [11] of 55.8 µM, a GI50 [12] of 24.1 µM and a TGI [12] of over 100 µM. The GI50 [13] was 10.1 µM, the TGI [13] was 21.7 µM and the GI50 [14] was 8.13 µM. The TGI [14] was 30.6 µM, the GI50 [15] was 20.2 µM and the TGI [15] was over 100 µM. For the same compound, the GI50 [16] was 0.523 µM, the TGI [16] was 1.82 µM and the GI50 [17] was 12.5 µM. The TGI [17] was 48.4 µM, the GI50 [18] was 10.6 µM and the TGI [18] was 23.7 µM. It also gave a GI50 [19] of 14.6 µM, a TGI [19] of 63.9 µM and a GI50 [20] of 6.15 µM. It also gave a TGI [20] of over 100 µM, a GI50 [21] of 2.33 µM and a TGI [21] of 7.94 µM. For the same compound, the GI50 [22] was 16.7 µM, the TGI [22] was over 100 µM and the GI50 [23] was 3.2 µM. It also gave a TGI [23] of 98.7 µM, a GI50 [24] of 11 µM and a TGI [24] of over 100 µM. The GI50 [25] was 25.8 µM, the TGI [25] was over 100 µM and the GI50 [26] was 58.3 µM. The TGI [26] was over 100 µM, the GI50 [27] was 0.276 µM and the TGI [27] was 0.7 µM. For the same compound, the GI50 [28] was 7.27 µM, the TGI [28] was over 100 µM and the GI50 [29] was 8.68 µM. For the same compound, the TGI [29] was 28.8 µM, the GI50 [30] was over 100 µM and the TGI [30] was over 100 µM. The GI50 [31] was 1.03 µM, the TGI [31] was 31.3 µM and the GI50 [32] was 32.3 µM. For the same compound, the TGI [32] was over 100 µM, the GI50 [33] was 3.36 µM and the TGI [33] was over 100 µM. It also gave a GI50 [34] of 10.7 µM, a TGI [34] of 22.8 µM and a GI50 [35] of 12.1 µM. The TGI [35] was 27.8 µM, the GI50 [36] was 11.2 µM and the TGI [36] was over 100 µM. It also gave a GI50 [37] of 12.2 µM, a TGI [37] of over 100 µM and a GI50 [38] of over 100 µM. For the same compound, the TGI [38] was over 100 µM, the GI50 [39] was 9.49 µM and the TGI [39] was over 100 µM. The GI50 [40] was 8.83 µM, the TGI [40] was over 100 µM and the GI50 [41] was 6.07 µM. It also gave a TGI [41] of 35.5 µM, a GI50 [42] of 75.9 µM and a TGI [42] of over 100 µM. It also gave a GI50 [43] of 2.13 µM, a TGI [43] of 4.74 µM and a GI50 [44] of 0.939 µM. For the same compound, the TGI [44] was 54.1 µM, the GI50 [45] was 8.06 µM and the TGI [45] was 47.8 µM. For the same compound, the GI50 [46] was 30 µM, the TGI [46] was over 100 µM and the GI50 [47] was 2.88 µM. The TGI [47] was 20.4 µM, the GI50 [48] was 31 µM and the TGI [48] was over 100 µM. For the same compound, the GI50 [49] was over 100 µM, the TGI [49] was over 100 µM and the GI50 [50] was 4.11 µM. For the same compound, the TGI [50] was 40.8 µM, the GI50 [51] was 4.56 µM and the TGI [51] was 21.5 µM. The GI50 [52] was 3.15 µM, the TGI [52] was 25.1 µM and the GI50 [53] was 19.8 µM. For the same compound, the TGI [53] was over 100 µM, the GI50 [54] was 27.4 µM and the TGI [54] was over 100 µM. It also gave a GI50 [55] of 8.78 µM and a TGI [55] of 52.6 µM.
